Measured values taken from patent US20100173873A1, “TREATMENT OF METASTASIZED TUMORS” (Novartis Vaccines and Diagnostics, Inc., priority 2005, published 2010).
Where “and” joins values, the source holds several entries; their conditions need not be identical. Equal values may be shown once. Entries after “also recorded” stand apart in the source; their conditions may differ. Read-outs that look alike come from different tables or passages of the source.

Experiments:
pSTAT5 in MV4;11 tumors = test: Target modulation in vivo, pSTAT5 in MV4;11 tumors; details: Mus musculus, MV4-11, po
[1] = test system: other kinases in the PI3K/Akt and MAPK(K) pathways; test: Selectivity test against other kinases; format: biochemical; details: negligible activity
4T1 murine breast tumor = 4T1 murine breast tumor model (primary tumor, liver and lung metastases); format: in vivo, BALB/c mice; details: for Liver # of Metastases Mean ± SD / Lung # of Metastases Mean ± SD: after 17 days of dosing
MV4;11 tumors [2] = details: 30 mg/kg/d
pFLT3 in MV4;11 tumors = test: Target modulation in vivo, pFLT3 in MV4;11 tumors; set-up: species or system SCID-NOD mice; details: 10 mg/kg/d p.o., 48 hours post dose
PI-3K = test: In vitro kinase assay, PI-3K; format: biochemical; details: RTK table
[3] = test system: MV4;11 cells disseminated to bone marrow; test: Intravenous MV4;11 bone marrow engraftment model; format: in vivo, SCID-NOD mice
Description: For processing of bone marrow (BM) cells from the mouse MV4;11 engraftment model, femurs were purged with cold saline and red blood cells lysed with FACS lysis buffer (Becton Dickinson). Percent engraftment of human leukemic cells in mouse BM was determined by staining with anti-human HLA-A,B,C-FITC (vs. isotype-matched antibody-FITC control) (BD Pharmingen).
[…]. […] Mice were monitored daily and were euthanized when moribund or early signs of loss of hind limb motility. Increased life span (ILS) of treated mice was calculated as a percent increase in median survival time (MST) vs. vehicle treated control mice.
[…]. In this model, MV4;11 cells disseminate to the bone marrow (BM), pathologically mimicking a disease pattern similar to human leukemia. […]. Histological analyses and flow cytometry were used to quantify the % engraftment of MV4;11 cells in BM. In flow cytometric analyses, human MV4;11 cells were identified in mouse BM with an anti-human HLA-A,B,C antibody which binds to an epitope on human MHCI. In vehicle-treated mice, approximately 2-19% of total isolated BM cells consisted of engrafted MV4;11 cells (day 51,). This was also corroborated by immunohistochemistry with an antibody to human mitochondria which stains MV4;11 cells identifying the human cells in the mouse BM matrix. […].

Raf = test: In vitro kinase assay, Raf; format: biochemical; details: RTK table
ERK-½ = test: In vitro kinase assay, ERK; format: biochemical; details: RTK table
MV4;11 tumors [4] = test: Subcutaneous MV4;11 xenograft model; format: in vivo, SCID-NOD mice
pERK in MV4;11 cells = pERK in MV4;11 cells (flow cytometry, Western blot); details: Homo sapiens, MV4-11, 3 h, read-out: Inhibition of pERK
P-glycoprotein = P-glycoprotein (Homo sapiens, UniProt P08183); test: P-glycoprotein substrate status; format: in vitro ADME
PC-3M-luc tumor cells = test: PC-3M-luc bone metastatic prostate model; format: in vivo, nude mice
Description: Cell lines. Metastatic human prostate cell line PC-3M expressing null p53, del PTEN, VEGFR, FGFR and stably transfected with a construct of luciferase were obtained under a licensing agreement with Xenogen.
In vivo efficacy studies. […]. Animals received sterile rodent chow and water ad libitum and were housed in sterile filter-top cages with 12 hour light/dark cycles. All experiments were conducted under the guidelines of the Association for Assessment and Accreditation of Laboratory Animal Care International. PC-3M luc bone metastatic model. Human prostate cancer cell line PC-3M-luc cells (1.5×10^6 cells) stably transfected with a construct of luciferase were injected via intracardiac injections. Bioluminescent imaging (Xenogen's IVIS® imaging system) was used to non-invasively monitor the in vivo growth and metastasis of PC-3M-luc tumors after cell inoculation. Nearly all PC-3M-luc tumor cell-injected animals developed prostate lesions, which were mainly localized in the femur, and mandibles. […]. Mice were monitored daily and were euthanized when moribund.
Immunohistochemistry. Bone (femurs, mandible) samples were decalcified (Protocol™, Fisher Diagnostics, Middletown, Va.). Paraffin blocks were sectioned to […] thickness and placed on positively charged glass slides. Tissues were stained with hematoxylin and eosin for general tissue morphology and identification of PC-3M cells in bone.
Nude mice were inoculated with PC-3M-Luc cells intracardiacally with 1.5×10^6 cells. […]. The PC-3M-luc cell lines were purchased from Xenogen and the mice were imaged using Xenogen's IVIS® imaging system.

Akt⅓ = test: In vitro kinase assay, Akt; format: biochemical; details: RTK table
[5] = MV4;11 s.c., 30 mg/kg/d p.o., dose-response study

Chain of P-glycoprotein (P08183 whole entry): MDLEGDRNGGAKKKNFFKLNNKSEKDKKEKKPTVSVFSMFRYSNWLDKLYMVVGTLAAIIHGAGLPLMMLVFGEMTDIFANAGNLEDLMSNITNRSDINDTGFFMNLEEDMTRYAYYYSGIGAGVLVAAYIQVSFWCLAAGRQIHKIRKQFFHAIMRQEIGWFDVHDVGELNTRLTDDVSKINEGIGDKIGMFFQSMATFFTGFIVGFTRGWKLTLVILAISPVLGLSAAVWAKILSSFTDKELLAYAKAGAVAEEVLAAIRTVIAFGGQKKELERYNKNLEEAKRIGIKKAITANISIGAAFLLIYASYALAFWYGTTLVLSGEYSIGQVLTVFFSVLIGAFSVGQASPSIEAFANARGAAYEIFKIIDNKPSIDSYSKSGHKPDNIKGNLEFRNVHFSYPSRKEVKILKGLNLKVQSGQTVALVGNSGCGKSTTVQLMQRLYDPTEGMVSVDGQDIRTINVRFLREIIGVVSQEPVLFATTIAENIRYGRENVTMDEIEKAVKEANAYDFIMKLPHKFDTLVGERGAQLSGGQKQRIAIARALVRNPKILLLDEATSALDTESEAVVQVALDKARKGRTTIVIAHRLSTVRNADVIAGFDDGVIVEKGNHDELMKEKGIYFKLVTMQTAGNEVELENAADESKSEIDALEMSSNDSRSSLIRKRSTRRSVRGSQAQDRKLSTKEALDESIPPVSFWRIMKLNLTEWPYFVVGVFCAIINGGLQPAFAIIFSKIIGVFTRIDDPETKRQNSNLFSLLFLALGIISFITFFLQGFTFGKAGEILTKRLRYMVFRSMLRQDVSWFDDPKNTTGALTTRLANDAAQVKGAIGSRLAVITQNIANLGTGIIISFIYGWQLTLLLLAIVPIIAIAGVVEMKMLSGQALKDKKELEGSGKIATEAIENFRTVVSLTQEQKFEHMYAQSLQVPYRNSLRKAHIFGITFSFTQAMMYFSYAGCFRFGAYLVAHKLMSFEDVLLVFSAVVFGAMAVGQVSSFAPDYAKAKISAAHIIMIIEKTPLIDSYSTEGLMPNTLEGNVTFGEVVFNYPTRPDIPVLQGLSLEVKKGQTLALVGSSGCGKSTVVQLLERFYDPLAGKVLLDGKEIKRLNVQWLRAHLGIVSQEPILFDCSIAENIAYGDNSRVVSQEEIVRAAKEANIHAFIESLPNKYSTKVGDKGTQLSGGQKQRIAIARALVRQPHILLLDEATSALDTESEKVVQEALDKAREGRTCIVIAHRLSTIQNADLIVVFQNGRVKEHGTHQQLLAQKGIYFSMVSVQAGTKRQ

**Q.** CN1CCN(c2ccc3nc(-c4c(N)c5c(F)cccc5[nH]c4=O)[nH]c3c2)CC1 [Compound 1, 4-Amino-5-fluoro-3-[6-(4-methylpiperazin-1-yl)-1H-benzimidazol-2-yl]quinolin-2(1H)-one] was tested. Which inhibition at 10 mg/kg (pSTAT5 in MV4;11 tumors; 8 h, read-out: Inhibition of STAT5 phosphorylation in tumors) did it give?
**A.** The inhibition at 10 mg/kg was ~90%.

**Q.** And the inhibition at 10 mg/kg (pSTAT5 in MV4;11 tumors; 24 h, read-out: Inhibition of STAT5 phosphorylation in tumors)?
**A.** Its inhibition at 10 mg/kg is ~85%.

**Q.** And the inhibition at 10 mg/kg (pSTAT5 in MV4;11 tumors; 48 h, read-out: Inhibition of p-STAT5 in tumors)?
**A.** Its inhibition at 10 mg/kg is ~60%.

**Q.** What about the IC50 [1] of the same compound?
**A.** Its IC50 is > 10 µM.

**Q.** And the “Mean Tumor Volume day 18” value (4T1 murine breast tumor; 10 mg/kg p.o. once daily)?
**A.** The value was 1798 mm^3.

**Q.** And the “Treated/Control day 18” value (4T1 murine breast tumor; 10 mg/kg p.o. once daily)?
**A.** The value was 0.80.

**Q.** And the “Max % Inhibition (study day), primary tumor growth” value (shortened to “Max % Inhibition (study day)”) (4T1 murine breast tumor; 10 mg/kg p.o. once daily, d 11)?
**A.** The value was 32% and 32 (d 11) %.

**Q.** What about the “Liver # of Metastases Mean ± SD” value (4T1 murine breast tumor; 10 mg/kg) of the same compound?
**A.** The value was 22 ± 32.

**Q.** And the “Lung # of Metastases Mean ± SD” value (4T1 murine breast tumor; 10 mg/kg)?
**A.** The value was 36 ± 32.

**Q.** What about the “Mean Tumor Volume day 18” value (4T1 murine breast tumor; 30 mg/kg p.o. once daily) of the same compound?
**A.** Its value is 1246 mm^3.

**Q.** And the “Treated/Control day 18” value (4T1 murine breast tumor; 30 mg/kg p.o. once daily)?
**A.** Its value is 0.55.

**Q.** And the “Max % Inhibition (study day)” value (4T1 murine breast tumor; 30 mg/kg p.o. once daily, d 18)?
**A.** The value was 45% and 45 (d 18) %.

**Q.** What about the “Liver # of Metastases Mean ± SD” value (4T1 murine breast tumor; 30 mg/kg) of the same compound?
**A.** Its value is 3 ± 4.

**Q.** And the “Lung # of Metastases Mean ± SD” value (4T1 murine breast tumor; 30 mg/kg)?
**A.** The value was 26 ± 26.

**Q.** What about the “Mean Tumor Volume day 18” value (4T1 murine breast tumor; 60 mg/kg p.o. once daily) of the same compound?
**A.** The value was 1248 mm^3.

**Q.** What about the “Treated/Control day 18” value (4T1 murine breast tumor; 60 mg/kg p.o. once daily) of the same compound?
**A.** The value was 0.56.

**Q.** And the “Max % Inhibition (study day)” value (4T1 murine breast tumor; 60 mg/kg p.o. once daily, d 11)?
**A.** The value was 50% and 50 (d 11) %.

**Q.** And the “Liver # of Metastases Mean ± SD” value (4T1 murine breast tumor; 60 mg/kg)?
**A.** The value was 1 ± 1.

**Q.** What about the “Lung # of Metastases Mean ± SD” value (4T1 murine breast tumor; 60 mg/kg) of the same compound?
**A.** Its value is 24 ± 11.

**Q.** And the “Mean Tumor Volume day 18” value (4T1 murine breast tumor; 100 mg/kg p.o. once daily)?
**A.** The value was 624 mm^3.

**Q.** What about the “Treated/Control day 18” value (4T1 murine breast tumor; 100 mg/kg p.o. once daily) of the same compound?
**A.** Its value is 0.28.

**Q.** What about the “Max % Inhibition (study day)” value (4T1 murine breast tumor; 100 mg/kg p.o. once daily, d 14) of the same compound?
**A.** The value was 74% and 74 (d 14) %.

**Q.** And the “Liver # of Metastases Mean ± SD” value (4T1 murine breast tumor; 100 mg/kg)?
**A.** Its value is 4 ± 13.

**Q.** And the “Lung # of Metastases Mean ± SD” value (4T1 murine breast tumor; 100 mg/kg)?
**A.** The value was 24 ± 30.

**Q.** And the “Mean Tumor Volume day 18” value (4T1 murine breast tumor; 150 mg/kg p.o. once daily)?
**A.** The value was 402 mm^3.

**Q.** What about the “Treated/Control day 18” value (4T1 murine breast tumor; 150 mg/kg p.o. once daily) of the same compound?
**A.** The value was 0.18.

**Q.** What about the “Max % Inhibition (study day)” value (4T1 murine breast tumor; 150 mg/kg p.o. once daily, d 18) of the same compound?
**A.** Its value is 82% and 82 (d 18) %.

**Q.** What about the “Liver # of Metastases Mean ± SD” value (4T1 murine breast tumor; 150 mg/kg) of the same compound?
**A.** Its value is 0 ± 0.

**Q.** And the “Lung # of Metastases Mean ± SD” value (4T1 murine breast tumor; 150 mg/kg)?
**A.** Its value is 2 ± 3.

**Q.** What about the “Reduction of number of liver tumor nodules versus controls” value (4T1 murine breast tumor; 30, 60 and 100 mg/kg treatments) of the same compound?
**A.** Its value is ≥ 77%.

**Q.** And the Phospho-ERK immunohistochemical staining (MV4;11 tumors [2]; 5-day dosing period)?
**A.** Its Phospho-ERK immunohistochemical staining is “significantly lowered”.

**Q.** What about the “Ki67 staining (proliferation)” value (MV4;11 tumors [2]; after 5 doses) of the same compound?
**A.** The value was “reduced Ki67 staining”.

**Q.** What about the “Apoptosis (activated caspase-3, cleaved PARP staining)” value (MV4;11 tumors [2]; day 5) of the same compound?
**A.** The value was “increased activated caspase-3 and cleaved PARP staining”.

**Q.** What about the Phospho-FLT3 in tumors (pFLT3 in MV4;11 tumors) of the same compound?
**A.** Its Phospho-FLT3 in tumors is “returned closer to baseline levels”.

**Q.** What about the IC50 (PI-3K) of the same compound?
**A.** The IC50 was > 10 µM.

**Q.** What about the “Survival (Kaplan-Meier, FIG. 6)” value ([3]; 20 mg/kg daily or 7 days on/7 days off) of the same compound?
**A.** Its value is “prolongs survival”.

**Q.** What about the “Median survival time (MST)” value ([3]; 20 mg/kg p.o. 7 days on/7 days off, 5 cycles) of the same compound?
**A.** The value was 118 days.

**Q.** And the “Increased life span (ILS)” value ([3]; 20 mg/kg p.o. 7 days on/7 days off, 5 cycles, vs. vehicle)?
**A.** The value was 131%.

**Q.** What about the “Long-term survivors (MST >160 days)” value ([3]; 20 mg/kg p.o. daily) of the same compound?
**A.** Its value is 4 mice.

**Q.** And the “Median survival time (MST)” value ([3]; 20 mg/kg p.o. daily, day 23-100)?
**A.** Its value is 134 days.

**Q.** And the “Tumor cells in BM of surviving mice (anti-human mitochondria IHC)” value ([3]; day 167)?
**A.** The value was “no evidence of tumor cells”.

**Q.** What about the IC50 (Raf) of the same compound?
**A.** The IC50 was > 10 µM.

**Q.** And the IC50 (ERK-½)?
**A.** Its IC50 is > 10 µM.

**Q.** What about the “Complete responses (CR)” value (MV4;11 tumors [4]; MV4;11 s.c., 30 mg/kg p.o. daily, schedule study (FIG. 4)) of the same compound?
**A.** Its value is 1.

**Q.** And the “Tumor growth inhibition (TGI)” value (MV4;11 tumors [4]; MV4;11 s.c., 30 mg/kg p.o., intermittent dosage regimens)?
**A.** The value was > 94%.

**Q.** What about the “Complete responses (CR)” value (MV4;11 tumors [4]; [5]) of the same compound?
**A.** The value was 1.

**Q.** And the Tumor responses (MV4;11 tumors [4]; [5])?
**A.** Its Tumor responses is 9/10.

**Q.** And the “Doses with significant tumor growth inhibition” value (MV4;11 tumors [4]; MV4;11 s.c., p.o., FIG. 2)?
**A.** Its value is > 5 mg/kg/day.

**Q.** What about the “Minor responses or stable” value (MV4;11 tumors [4]; large MV4;11 tumors 300, 500 or 1000 mm^3, 30 mg/kg/d, n=27) of the same compound?
**A.** The value was 15%.

**Q.** And the “Complete responses durable for 40 days after cessation of dosing” value (MV4;11 tumors [4]; large MV4;11 tumors, 30 mg/kg/d for 50 days)?
**A.** Its value is “One CR”.

**Q.** What about the “Regression of large MV4;11 tumors” value (MV4;11 tumors [4]; tumors staged at 300, 500 or 1000 mm^3, 30 mg/kg/d) of the same compound?
**A.** Its value is “significant regression in all MV4;11 tumors; also recorded: induces regression of large MV4;11 tumors”.

**Q.** And the inhibition at 0.1 µM (pERK in MV4;11 cells)?
**A.** Its inhibition at 0.1 µM is > 50%.

**Q.** What about the P-GP substrate status (P-glycoprotein) of the same compound?
**A.** Its P-GP substrate status is “not a P-GP substrate”.

**Q.** And the “Photon counts / metastatic growth of PC-3M-luc cells” value (PC-3M-luc tumor cells; 50 mg/kg p.o. daily, vs. vehicle)?
**A.** Its value is “trend to inhibit metastatic growth; also recorded: trend of decreased photon count; also recorded: trend to inhibit PC-3M-luc photon counts”.

**Q.** And the “Efficacy compared with taxol (15 mg/kg)” value (PC-3M-luc tumor cells; 50 mg/kg/d p.o.)?
**A.** The value was “more effective than taxol treatment”.

**Q.** What about the IC50 (Akt⅓) of the same compound?
**A.** The IC50 was > 10 µM.
